Measurements: patent publication US7772245B2, “Inhibitors of histone deacetylase” (Miikana Therapeutics, Inc., priority 2005, dated 2010)

Key:
HCT116 cells = experiment: Whole cell cytotoxicity assay: Sulforhodamine B; assay type: cell-based; conditions: Homo sapiens, HCT-116; 100 μM compound; 48 hours incubation with drug; Sulforhodamine B staining; read-out: % Inhibition of HCT116 cell growth @ 100 μM
Procedure: [The source words this procedure for another cell line and reports this cell line under the same test.] The following procedure can be found on the Developmental Therapeutics Program NCl/NIH web site at http://dtp.nci.nih.gov/brancehes/btb/ivclsp.html. • 1. Human tumor cell lines of HT29, A549 and MCF7 are grown in DMEM containing 10% fetal bovine serum and 2 mM L-glutamine. Cells are plated in a 96 well plate at a density of 5000 cells per well in 100 μL of growth medium and incubated at 37° C., 5% CO2, for 24 hours prior to the addition of experimental compounds. • 2. Experimental drugs are solubilized in DMSO for a final concentration of 20 mM immediately prior to use. Drugs are further diluted in growth media for a total of nine drug concentrations and a growth control. At the 24 hour time point, one plate of cells is fixed in situ with TCA as a measurement of the cell population at time zero, or the time of drug addition. • 3. The plates are further incubated with drug for an additional 48 hours. • 4. The cells are fixed in situ by gently aspirating off the culture media and then adding 50 μL of ice cold 10% TCA per well and incubated at 4° C. for 60 minutes. The plates are washed with tap water five times and allowed to air dry for 5 minute. • 5. 50 μL of a 0.4% (w/v) Sulforhodamine B solution in 1% (v/v) acetic acid is added per well and incubated for 30 minutes at room temperature. • 6. Following staining, plates are washed five times with 1% acetic acid to remove any unbound dye and then allowed to air dry for 5 minutes. • 7. Stain is solubilized with 100 μL of 10 mM Tris pH 10.5 per well and placed on an orbital rotator for 5 minutes. • 8. Absorbance is read at 570 nm.

HDAC = experiment: In vitro fluorescent histone deacetylase assay (Biomol HDAC fluorescent activity kit, HeLa cell nuclear extract); assay type: biochemical; conditions: 100 μM compound; HeLa cell nuclear extract as source of HDAC activity; 50 μM substrate, 10 min at room temperature
Procedure: Histone deacetylase (HDAC) activity assays were performed using the HDAC fluorescent activity assay/drug discovery kit (Biomol Research Laboratories, Plymouth Meeting, Pa.) essentially according to the manufacturer's instructions. The included HeLa cell nuclear extract, which contains a mosaic of HDAC enzymes and other nuclear factors, was used as the source of HDAC activity. The final substrate concentration in the assay mixture was 50 μM. The reaction was allowed to proceed for 10 min at room temperature before stopping the reaction. Test compounds were prepared as 20 mM stock solutions in DMSO (Molecular Biology grade, Sigma-Aldrich Co., St. Louis, Mo.) and stored at −70° C. Serial dilutions of test compounds were prepared in assay buffer immediately prior to testing. DMSO was determined in a separate trial to have no significant effect on the activity of this assay at concentrations up to 5%; the final DMSO concentration in the wells was no more than 2% and therefore DMSO effects were safely neglected. Assays were performed in white polystyrene 96-well half-area assay plates (Corning, Corning, N.Y.) and measured on a Wallace 1420 fluorescent plate reader (Wallac Oy, Turku, Finland) with an excitation wavelength of 355 nm, an emission wavelength of 460 nm, and a 1 sec signal averaging time.

SMILES	inhibition at 100 µM (HCT116 cells) [%]	% Inhibition of HDAC @ 100 μM (HDAC) [%]
O=C(NO)c1cnc(N2CCc3c(n(CCN4CCCCC4)c4ccccc34)C2)nc1 [Example 24, N-hydroxy-2-[9-(2-piperidin-1-ylethyl)-1,3,4,9-tetrahydro-2H-b-carbolin-2-yl]pyrimidine-5-carboxamide]	98.9	99
O=C(NO)c1cnc(N2CCc3c(n(CCN4CCOCC4)c4ccccc34)C2)nc1 [Example 25, N-hydroxy-2-[9-(2-morpholin-4-ylethyl)-1,3,4,9-tetrahydro-2H-b-carbolin-2-yl]pyrimidine-5-carboxamide]	94	98
O=C(NO)c1cnc(N2CCc3c(n(S(=O)(=O)c4ccccc4)c4ccccc34)C2)nc1 [Example 26, N-hydroxy-2-[9-(phenylsulfonyl)-1,3,4,9-tetrahydro-2H-b-carbolin-2-yl]pyrimidine-5-carboxamide]	99	98.9
Cn1c2c(c3ccccc31)CCN(c1ncc(C(=O)NO)cn1)C2 [Example 27, N-hydroxy-2-(9-methyl-1,3,4,9-tetrahydro-2H-b-carbolin-2-yl)pyrimidine-5-carboxamide]	98.9	98.3
O=C(NO)c1cnc(N2CCc3c(n(Cc4ccccc4)c4ccccc34)C2)nc1 [Example 28, N-hydroxy-2-(9-benzyl-1,3,4,9-tetrahydro-2H-b-carbolin-2-yl)pyrimidine-5-carboxamide]	98.7	95.2
CC(=O)n1c2c(c3ccccc31)CCN(c1ncc(C(=O)NO)cn1)C2 [Example 29, 2-(9-acetyl-1,3,4,9-tetrahydro-2H-b-carbolin-2-yl)-N-hydroxypyrimidine-5-carboxamide]	98	99.8
O=C(NO)c1cnc(N2CCc3c(n(CN4CCCC4)c4ccccc34)C2)nc1 [Example 30, N-hydroxy-2-{9-[2-pyrrolidin-1-ylmethyl]-1,3,4,9-tetrahydro-2H-b-carbolin-2-yl}pyrimidine-5-carboxamide]	96.8	98.1
COc1ccc2c(c1)CN(c1ncc(C(=O)NO)cn1)CC2 [Example 31, 2-(7-methoxy-3,4,dihydroisoquinolin-2(1H)-yl)-N-hydroxypyrimidine-5-carboxamide]	99.5	100
O=C(NO)c1cnc(N2Cc3cccc4cccc(c34)C2)nc1 [Example 32, 2-(1H-benzo[de]isoquinolin-2(3H)-yl)-N-hydroxypyrimidine-5-carboxamide]	94.6	96.6
Cc1cc2c3c([nH]c2cc1Cl)CCN(c1ncc(C(=O)NO)cn1)C3 [Example 34, N-hydroxy-2-(7-chloro-8-methyl-1,3,4,5-tetrahydro-2H-pyrido[4,3-b]indol-2-yl)pyrimidine-5-carboxamide]	99.3	99.1
O=C(NO)c1cnc(N2CCc3[nH]c4cc(F)ccc4c3C2)nc1 [Example 35, N-hydroxy-2-(7-fluoro-1,3,4,5-tetrahydro-2H-pyrido[4,3-b]indol-2-yl)pyrimidine-5-carboxamide]	97.3	99.9
Cc1ccc2c3c([nH]c2c1)CCN(c1ncc(C(=O)NO)cn1)C3 [Example 36, N-hydroxy-2-(7-methyl-1,3,4,5-tetrahydro-2H-pyrido[4,3-b]indol-2-yl)pyrimidine-5-carboxamide]	98.3	99.8
O=C(NO)c1cnc(N2CCc3[nH]c4ccc([N+](=O)[O-])cc4c3C2)nc1 [Example 37, N-hydroxy-2-(8-nitro-1,3,4,5-tetrahydro-2H-pyrido[4,3-b]indol-2-yl)pyrimidine-5-carboxamide]	97.1	99.9
CC(C)c1ccc2[nH]c3c(c2c1)CN(c1ncc(C(=O)NO)cn1)CC3 [Example 38, N-hydroxy-2-{8-isopropyl-1,3,4,5-tetrahydro-2H-pyrido[4,3-b]indol-2-yl}pyrimidine-5-carboxamide]	99.5	99.8
CC(C)(C)c1ccc2[nH]c3c(c2c1)CN(c1ncc(C(=O)NO)cn1)CC3 [Example 39, N-hydroxy-2-{8-tert-butyl-1,3,4,5-tetrahydro-2H-pyrido[4,3-b]indol-2-yl}pyrimidine-5-carboxamide]	99.4	98.8
COc1ccc(-c2ccc3[nH]c4c(c3c2)CN(c2ncc(C(=O)NO)cn2)CC4)cc1 [Example 40, N-hydroxy-2-{8-[4-methoxyphenyl]-1,3,4,5-tetrahydro-2H-pyrido[4,3-b]indol-2-yl}pyrimidine-5-carboxamide]	98.3	99.8
Cc1ccc(-c2ccc3[nH]c4c(c3c2)CN(c2ncc(C(=O)NO)cn2)CC4)cc1 [Example 41, N-hydroxy-2-{8-[4-methylphenyl]-1,3,4,5-tetrahydro-2H-pyrido[4,3-b]indol-2-yl}pyrimidine-5-carboxamide]	98.7	99.6
O=C(NO)c1cnc(N2CCc3[nH]c4ccc(-c5cccc(CO)c5)cc4c3C2)nc1 [Example 43, N-hydroxy-2-{8-[3-(hydroxymethyl)phenyl]-1,3,4,5-tetrahydro-2H-pyrido[4,3-b]indol-2-yl}pyrimidine-5-carboxamide]	98.7	100
O=C(NO)c1cnc(N2CCc3[nH]c4ccc(-c5cccc(F)c5)cc4c3C2)nc1 [Example 44, N-hydroxy-2-{8-[3-fluorophenyl]-1,3,4,5-tetrahydro-2H-pyrido[4,3-b]indol-2-yl}pyrimidine-5-carboxamide]	97.6	99.9
O=C(NO)c1cnc(N2CCc3[nH]c4ccc(-c5ccc(F)cc5)cc4c3C2)nc1 [Example 45, N-hydroxy-2-{8-[4-fluorophenyl]-1,3,4,5-tetrahydro-2H-pyrido[4,3-b]indol-2-yl}pyrimidine-5-carboxamide]	98.9	99.9
O=C(NO)c1cnc(N2CCc3[nH]c4ccc(-c5ccco5)cc4c3C2)nc1 [Example 46, N-hydroxy-2-{8-(fur-2-yl)-1,3,4,5-tetrahydro-2H-pyrido[4,3-b]indol-2-yl}pyrimidine-5-carboxamide]	98.6	99.8
CN(C)c1ccc(-c2ccc3[nH]c4c(c3c2)CN(c2ncc(C(=O)NO)cn2)CC4)cc1 [Example 48, N-hydroxy-2-{8-[4-dimethylaminophenyl]-1,3,4,5-tetrahydro-2H-pyrido[4,3-b]indol-2-yl}pyrimidine-5-carboxamide]	97.8	99.7
CSc1cccc(-c2ccc3[nH]c4c(c3c2)CN(c2ncc(C(=O)NO)cn2)CC4)c1 [Example 49, N-hydroxy-2-{8-[3-(methylthio)phenyl]-1,3,4,5-tetrahydro-2H-pyrido[4,3-b]indol-2-yl}pyrimidine-5-carboxamide]	99.3	99.9
CC(=O)Nc1ccc(-c2ccc3[nH]c4c(c3c2)CN(c2ncc(C(=O)NO)cn2)CC4)cc1 [Example 50, N-hydroxy-2-{8-[4-(N-acetamido)phenyl]-1,3,4,5-tetrahydro-2H-pyrido[4,3-b]indol-2-yl}pyrimidine-5-carboxamide]	89.1	99.7
O=C(NO)c1cnc(N2CCc3[nH]c4ccc(-c5cncnc5)cc4c3C2)nc1 [Example 51, N-hydroxy-2-{8-(pyrimidin-5-yl)-1,3,4,5-tetrahydro-2H-pyrido[4,3-b]indol-2-yl}pyrimidine-5-carboxamide]	98.7	99.8
O=C(NO)c1cnc(N2CCc3[nH]c4ccc(-c5ccoc5)cc4c3C2)nc1 [Example 52, N-hydroxy-2-{8-[fur-3-yl]-1,3,4,5-tetrahydro-2H-pyrido[4,3-b]indol-2-yl}pyrimidine-5-carboxamide]	98.9	99.7
